Measurements taken from US11654121B1 (priority 2022, dated 2023).

Tests used:
SARS-CoV-2 = experiment: CellTiter-Glo host cell viability assay of SARS-CoV-2-infected Vero E6 cells; format: cell-based; conditions: for host cell viability: hypericin 0 μM
Method: Vero E6 cells were seeded at 25,000 cells/well in 96-well plates and SARS-CoV-2 was added into the wells at a MOI of 0.01. After 1 hour, hypericin (Cayman Chemical, ≥95% purity) was added into the wells at final concentrations of 1.5625-100 μM or the vehicle only control (DMSO), followed by the addition of remdesivir (Novation Chemicals, 98% purity) at final concentrations of 0.3125-5 μM or the vehicle only control (DMSO), and incubated at 37° C.
After 72 hours of incubation, host cell viability was assessed using CellTiter-Glo® Luminescent Cell Viability Assay (Promega) according to the manufacturer's instructions. Results were normalized to the highest dose of remdesivir alone (5 μM) and are summarized below in Table 1.

[1] = system: SARS-CoV-2 virus [B.1.351]; format: in vivo, mice; conditions: Hypericin 20 mg/kg alone, pre-treatment from two days prior to infection; day 4 post-infection

Cc1cc(O)c2c(=O)c3c(O)cc(O)c4c5c(O)cc(O)c6c(=O)c7c(O)cc(C)c8c1c2c(c34)c(c78)c65 [Hypericin] was tested, and the viability at 1.563 µM (SARS-CoV-2; Severe acute respiratory syndrome coronavirus 2, Vero C1008, hypericin 1.563 μM, remdesivir 0 μM, 72 h, normalized to remdesivir 5 μM alone) was 14.6%, the viability at 3.125 µM (SARS-CoV-2; Severe acute respiratory syndrome coronavirus 2, Vero C1008, hypericin 3.125 μM, remdesivir 0 μM, 72 h, normalized to remdesivir 5 μM alone) was 12.9% and the viability at 6.25 µM (SARS-CoV-2; Severe acute respiratory syndrome coronavirus 2, Vero C1008, hypericin 6.25 μM, remdesivir 0 μM, 72 h, normalized to remdesivir 5 μM alone) was 12.8%. The viability at 12.5 µM (SARS-CoV-2; Severe acute respiratory syndrome coronavirus 2, Vero C1008, hypericin 12.5 μM, remdesivir 0 μM, 72 h, normalized to remdesivir 5 μM alone) was 20.4%, the viability at 25 µM (SARS-CoV-2; Severe acute respiratory syndrome coronavirus 2, Vero C1008, hypericin 25 μM, remdesivir 0 μM, 72 h, normalized to remdesivir 5 μM alone) was 62% and the viability at 50 µM (SARS-CoV-2; Severe acute respiratory syndrome coronavirus 2, Vero C1008, hypericin 50 μM, remdesivir 0 μM, 72 h, normalized to remdesivir 5 μM alone) was 62.6%. The viability at 100 µM (SARS-CoV-2; Severe acute respiratory syndrome coronavirus 2, Vero C1008, hypericin 100 μM, remdesivir 0 μM, 72 h, normalized to remdesivir 5 μM alone) was 38%, the viability at 50 µM (SARS-CoV-2; Severe acute respiratory syndrome coronavirus 2, Vero C1008, hypericin alone (12.5-100 μM), up to, at 50 μM) was ≤ 62% and the “effect on host cell viability in words” value (SARS-CoV-2; hypericin (25-50 μM) alone) was “modest improvements in host cell viability”. The “mice in which all infectious titers were eliminated” value [1] was 5 out of 7.

CCC(CC)COC(=O)[C@H](C)N[P@](=O)(OC[C@H]1O[C@@](C#N)(c2ccc3c(N)ncnn23)[C@H](O)[C@@H]1O)Oc1ccccc1 [Remdesivir, remdesivir, reference compound] showed a host cell viability (SARS-CoV-2; remdesivir 0.3125 μM, 72 h, normalized to remdesivir 5 μM alone) of 19.8%, a host cell viability (SARS-CoV-2; remdesivir 0.625 μM, 72 h, normalized to remdesivir 5 μM alone) of 21.9% and a host cell viability (SARS-CoV-2; remdesivir 1.25 μM, 72 h, normalized to remdesivir 5 μM alone) of 25.2%. It also gave a host cell viability (SARS-CoV-2; remdesivir 2.5 μM, 72 h, normalized to remdesivir 5 μM alone) of 38.1%.
